Source: ChEMBL document CHEMBL1201862, “PubChem BioAssay data set” (2004)
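Compound exposure: 48 hours, 5 concentrations, 96-well plates. GI50 marks 50% less growth.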 Activity calls are given as the source filed them. No stated cut-off is given here; in the data, active = GI50 up to about 1.1 µM and inactive = higher.

Assays:
Assay in all cases: NCI tumour cell line growth inhibition, 48 h
A498 = system: A498
CAKI-1 = system: CAKI-1
HCT-116 = system: HCT-116
HL-60 = system: HL-60
HOP-62 = system: HOP-62
HOP-92 = system: HOP-92
HT-29 = system: HT-29
NCI-H226 = system: NCI-H226
NCI-H23 = system: NCI-H23
OVCAR-3 = system: OVCAR-3
OVCAR-8 = system: OVCAR-8
RPMI-8226 = system: RPMI-8226
SF-268 = system: SF-268
SF-539 = system: SF-539
SNB-19 = system: SNB-19
SW-620 = system: SW-620
U-251 = system: U-251
UACC-257 = system: UACC-257
UACC-62 = system: UACC-62
UO-31 = system: UO-31

C=C1C(=O)O[C@@H]2[C@H](O)[C@@H](C)[C@@H]3C=CC(=O)[C@@]3(C)[C@@H](OC(=O)/C(C)=C/C)[C@H]12 was tested. Which GI50 (A498) did it give?
The GI50 was 1.32 µM (inactive).

And the GI50 (CAKI-1)?
Its GI50 is 0.782 µM (active).

And the GI50 (HCT-116)?
The GI50 was 0.3 µM (active).

What about the GI50 (HL-60) of the same molecule?
Its GI50 is 0.355 µM (active).

And the GI50 (HOP-62)?
Its GI50 is 7.46 µM (inactive).

What about the GI50 (HOP-92) of the same molecule?
Its GI50 is 0.548 µM (active).

What about the GI50 (HT-29) of the same molecule?
The GI50 was 0.745 µM (active).

What about the GI50 (NCI-H226) of the same molecule?
Its GI50 is 1.12 µM (inactive).

And the GI50 (NCI-H23)?
The GI50 was 0.845 µM (active).

What about the GI50 (OVCAR-3) of the same molecule?
The GI50 was 0.719 µM (active).

And the GI50 (OVCAR-8)?
The GI50 was 0.723 µM (active).

What about the GI50 (RPMI-8226) of the same molecule?
Its GI50 is 0.344 µM (active).

And the GI50 (SF-268)?
Its GI50 is 0.437 µM (active).

What about the GI50 (SF-539) of the same molecule?
The GI50 was 0.468 µM (active).

What about the GI50 (SNB-19) of the same molecule?
The GI50 was 2.77 µM (inactive).

And the GI50 (SW-620)?
Its GI50 is 0.483 µM (active).

What about the GI50 (U-251) of the same molecule?
Its GI50 is 0.733 µM (active).

And the GI50 (UACC-257)?
Its GI50 is 0.718 µM (active).

And the GI50 (UACC-62)?
The GI50 was 0.342 µM (active).

And the GI50 (UO-31)?
Its GI50 is 5.31 µM (inactive).
